Measurements taken from patent US8192962B2, “Processes for detecting toxic substances” (Daikin Industries, Ltd., priority 2001, dated 2012).

System: Unknown protein yeast genes
Assay: DNA chip mRNA expression in yeast, unknown protein yeast genes (Table 1)
Assay type: cell-based, Saccharomyces cerevisiae S288C
Method in brief: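 Cells were grown at 25° C. in YPD, treated at logarithmic phase for 2 h with a chemical at a concentration inhibiting growth but not causing death, and compared with untreated cultures. Labeled cDNA was hybridized to a DNA chip carrying all yeast genes, and the expression ratio was taken from scanner fluorescence.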

## [Cl][Pb][Cl] [(4), PbCl2]
Yeast gene YAL053W, incubated two hours with chemical substance
  The level of expressed mRNA in the presence of chemical substance/The level of expressed mRNA in the absence of chemical substance: 2.1
Yeast gene YBL048W
  The level of expressed mRNA in the presence of chemical substance/The level of expressed mRNA in the absence of chemical substance: 2.8
Yeast gene YBL107C
  The level of expressed mRNA in the presence of chemical substance/The level of expressed mRNA in the absence of chemical substance: 1.5
Yeast gene YDL072C, incubated two hours with chemical substance
  The level of expressed mRNA in the presence of chemical substance/The level of expressed mRNA in the absence of chemical substance: 2.1
Yeast gene YDL204W, incubated two hours with chemical substance
  The level of expressed mRNA in the presence of chemical substance/The level of expressed mRNA in the absence of chemical substance: 3.4
Yeast gene YDL222C, incubated two hours with chemical substance
  The level of expressed mRNA in the presence of chemical substance/The level of expressed mRNA in the absence of chemical substance: 3.9
Yeast gene YDR330W, incubated two hours with chemical substance
  The level of expressed mRNA in the presence of chemical substance/The level of expressed mRNA in the absence of chemical substance: 0.8
Yeast gene YDR411C, incubated two hours with chemical substance
  The level of expressed mRNA in the presence of chemical substance/The level of expressed mRNA in the absence of chemical substance: 1.2
Yeast gene YDR511W, incubated two hours with chemical substance
  The level of expressed mRNA in the presence of chemical substance/The level of expressed mRNA in the absence of chemical substance: 2.3
Yeast gene YDR545W, incubated two hours with chemical substance
  The level of expressed mRNA in the presence of chemical substance/The level of expressed mRNA in the absence of chemical substance: 0.7
Yeast gene YEL001C, incubated two hours with chemical substance
  The level of expressed mRNA in the presence of chemical substance/The level of expressed mRNA in the absence of chemical substance: 0.7
Yeast gene YER004W, incubated two hours with chemical substance
  The level of expressed mRNA in the presence of chemical substance/The level of expressed mRNA in the absence of chemical substance: 1.4
Yeast gene YER035W, incubated two hours with chemical substance
  The level of expressed mRNA in the presence of chemical substance/The level of expressed mRNA in the absence of chemical substance: 1.9
Yeast gene YER079W, incubated two hours with chemical substance
  The level of expressed mRNA in the presence of chemical substance/The level of expressed mRNA in the absence of chemical substance: 2.0
Yeast gene YER106W, incubated two hours with chemical substance
  The level of expressed mRNA in the presence of chemical substance/The level of expressed mRNA in the absence of chemical substance: 1.2
Yeast gene YER158C, incubated two hours with chemical substance
  The level of expressed mRNA in the presence of chemical substance/The level of expressed mRNA in the absence of chemical substance: 3.1
Yeast gene YER163C, incubated two hours with chemical substance
  The level of expressed mRNA in the presence of chemical substance/The level of expressed mRNA in the absence of chemical substance: 1.6
Yeast gene YER175C, incubated two hours with chemical substance
  The level of expressed mRNA in the presence of chemical substance/The level of expressed mRNA in the absence of chemical substance: 2.2
Yeast gene YFL006W, incubated two hours with chemical substance
  The level of expressed mRNA in the presence of chemical substance/The level of expressed mRNA in the absence of chemical substance: 1.0
Yeast gene YFL010C, incubated two hours with chemical substance
  The level of expressed mRNA in the presence of chemical substance/The level of expressed mRNA in the absence of chemical substance: 1.0
Yeast gene YFL024C
  The level of expressed mRNA in the presence of chemical substance/The level of expressed mRNA in the absence of chemical substance: 0.7
Yeast gene YFL032W, incubated two hours with chemical substance
  The level of expressed mRNA in the presence of chemical substance/The level of expressed mRNA in the absence of chemical substance: 0.8
Yeast gene YGL037C, incubated two hours with chemical substance
  The level of expressed mRNA in the presence of chemical substance/The level of expressed mRNA in the absence of chemical substance: 2.1
Yeast gene YGL047W, incubated two hours with chemical substance
  The level of expressed mRNA in the presence of chemical substance/The level of expressed mRNA in the absence of chemical substance: 2.3
Yeast gene YGL053W, incubated two hours with chemical substance
  The level of expressed mRNA in the presence of chemical substance/The level of expressed mRNA in the absence of chemical substance: 2.5
Yeast gene YGL121C
  The level of expressed mRNA in the presence of chemical substance/The level of expressed mRNA in the absence of chemical substance: 4.2
Yeast gene YGL199C, incubated two hours with chemical substance
  The level of expressed mRNA in the presence of chemical substance/The level of expressed mRNA in the absence of chemical substance: 1.0
Yeast gene YGR101W, incubated two hours with chemical substance
  The level of expressed mRNA in the presence of chemical substance/The level of expressed mRNA in the absence of chemical substance: 1.1
Yeast gene YGR110W
  The level of expressed mRNA in the presence of chemical substance/The level of expressed mRNA in the absence of chemical substance: 5.9
Yeast gene YGR130C, incubated two hours with chemical substance
  The level of expressed mRNA in the presence of chemical substance/The level of expressed mRNA in the absence of chemical substance: 1.6
Yeast gene YGR154C, incubated two hours with chemical substance
  The level of expressed mRNA in the presence of chemical substance/The level of expressed mRNA in the absence of chemical substance: 0.5
Yeast gene YGR221C, incubated two hours with chemical substance
  The level of expressed mRNA in the presence of chemical substance/The level of expressed mRNA in the absence of chemical substance: 1.4
Yeast gene YHR138C, incubated two hours with chemical substance
  The level of expressed mRNA in the presence of chemical substance/The level of expressed mRNA in the absence of chemical substance: 2.8
Yeast gene YHR199C, incubated two hours with chemical substance
  The level of expressed mRNA in the presence of chemical substance/The level of expressed mRNA in the absence of chemical substance: 2.0
Yeast gene YIL023C, incubated two hours with chemical substance
  The level of expressed mRNA in the presence of chemical substance/The level of expressed mRNA in the absence of chemical substance: 1.8
Yeast gene YIL041W, incubated two hours with chemical substance
  The level of expressed mRNA in the presence of chemical substance/The level of expressed mRNA in the absence of chemical substance: 1.3
Yeast gene YIL087C, incubated two hours with chemical substance
  The level of expressed mRNA in the presence of chemical substance/The level of expressed mRNA in the absence of chemical substance: 1.6
Yeast gene YJL057C, incubated two hours with chemical substance
  The level of expressed mRNA in the presence of chemical substance/The level of expressed mRNA in the absence of chemical substance: 1.7
Yeast gene YJL066C, incubated two hours with chemical substance
  The level of expressed mRNA in the presence of chemical substance/The level of expressed mRNA in the absence of chemical substance: 2.5
Yeast gene YJL082W, incubated two hours with chemical substance
  The level of expressed mRNA in the presence of chemical substance/The level of expressed mRNA in the absence of chemical substance: 1.1
Yeast gene YJL151C, incubated two hours with chemical substance
  The level of expressed mRNA in the presence of chemical substance/The level of expressed mRNA in the absence of chemical substance: 1.2
Yeast gene YJL152W, incubated two hours with chemical substance
  The level of expressed mRNA in the presence of chemical substance/The level of expressed mRNA in the absence of chemical substance: 1.3
Yeast gene YJL161W, incubated two hours with chemical substance
  The level of expressed mRNA in the presence of chemical substance/The level of expressed mRNA in the absence of chemical substance: 4.6
Yeast gene YJL171C, incubated two hours with chemical substance
  The level of expressed mRNA in the presence of chemical substance/The level of expressed mRNA in the absence of chemical substance: 1.4
Yeast gene YJR008W, incubated two hours with chemical substance
  The level of expressed mRNA in the presence of chemical substance/The level of expressed mRNA in the absence of chemical substance: 1.7
Yeast gene YJR054W, incubated two hours with chemical substance
  The level of expressed mRNA in the presence of chemical substance/The level of expressed mRNA in the absence of chemical substance: 0.9
Yeast gene YKL071W
  The level of expressed mRNA in the presence of chemical substance/The level of expressed mRNA in the absence of chemical substance: 2.8
Yeast gene YKL086W, incubated two hours with chemical substance
  The level of expressed mRNA in the presence of chemical substance/The level of expressed mRNA in the absence of chemical substance: 2.6
Yeast gene YKL151C, incubated two hours with chemical substance
  The level of expressed mRNA in the presence of chemical substance/The level of expressed mRNA in the absence of chemical substance: 2.5
Yeast gene YKL153W, incubated two hours with chemical substance
  The level of expressed mRNA in the presence of chemical substance/The level of expressed mRNA in the absence of chemical substance: 0.7
